In this test the target is T1, PKN1 (PRK1) (Homo sapiens, UniProt Q16512).
T1 construct: purchased Thermo Fisher Scientific (Life Technologies) SelectScreen
The test is described as follows: SelectScreen Z'LYTE. The format is biochemical. A digest of the protocol: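 NU5455 was profiled across the SelectScreen Broad panel of kinase activity and binding assays. Z'LYTE reactions such as CSF1R ran at apparent Km ATP, while the Adapta CAMK1 assay used ATP listed as 10. Values are given as percent.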

T1 sequence (Q16512 whole entry): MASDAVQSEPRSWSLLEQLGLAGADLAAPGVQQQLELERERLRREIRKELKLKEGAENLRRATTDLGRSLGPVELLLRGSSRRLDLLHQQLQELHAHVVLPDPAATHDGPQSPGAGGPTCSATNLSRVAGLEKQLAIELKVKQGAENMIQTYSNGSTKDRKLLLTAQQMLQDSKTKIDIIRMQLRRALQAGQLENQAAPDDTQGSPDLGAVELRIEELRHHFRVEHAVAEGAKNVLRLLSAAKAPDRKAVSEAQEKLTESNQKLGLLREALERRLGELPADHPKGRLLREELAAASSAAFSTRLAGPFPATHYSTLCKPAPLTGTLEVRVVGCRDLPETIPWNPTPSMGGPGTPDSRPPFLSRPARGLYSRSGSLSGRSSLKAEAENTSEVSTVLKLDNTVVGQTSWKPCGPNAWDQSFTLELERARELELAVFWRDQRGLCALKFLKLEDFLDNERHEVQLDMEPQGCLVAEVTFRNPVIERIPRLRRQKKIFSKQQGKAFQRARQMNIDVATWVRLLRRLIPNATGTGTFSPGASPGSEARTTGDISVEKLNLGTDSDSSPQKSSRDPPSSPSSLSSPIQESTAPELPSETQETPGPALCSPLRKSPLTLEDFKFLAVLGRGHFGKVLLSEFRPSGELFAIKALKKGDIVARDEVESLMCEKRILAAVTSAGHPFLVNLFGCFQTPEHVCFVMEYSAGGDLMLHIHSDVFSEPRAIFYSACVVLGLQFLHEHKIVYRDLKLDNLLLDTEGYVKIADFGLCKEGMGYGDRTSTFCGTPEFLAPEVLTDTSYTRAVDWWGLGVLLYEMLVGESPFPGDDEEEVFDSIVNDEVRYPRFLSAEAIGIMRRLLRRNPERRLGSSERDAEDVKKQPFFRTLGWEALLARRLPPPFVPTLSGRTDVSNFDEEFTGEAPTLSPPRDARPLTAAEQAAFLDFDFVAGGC

In general, inhibition refers to how much of the control response was suppressed. Read a high inhibition as a strong effect. The compound `CN(C(=O)CN1CCOCC1)c1ccc2sc3c(-c4cccc5c(=O)cc(N6CC7CCC(C6)O7)oc45)cccc3c2c1` [NU5455] gave an inhibition at 1 µM of 3.6%.

(Values after paper PMC6934184, “Selective DNA-PKcs inhibition extends the therapeutic index of localized radiotherapy and chemotherapy” (The Journal of Clinical Investigation, 2019).)
